ChEMBL document CHEMBL1133920, “Novel 4-piperidinopyridine inhibitors of oxidosqualene cyclase-lanosterol synthase derived by consideration of inhibitor pK(a)” (Bioorg Med Chem Lett, 2001)

What was measured:
[1] = system: Rattus norvegicus; assay: Percent reduction in food intake was determined after oral administration of 100 mg/kg in rat after 24 hours
[2] = organism: Rattus norvegicus; assay: Effective dose for the 50% inhibition of rat cholesterol biosynthesis; type: functional
[3] = organism: Rattus norvegicus; assay: Effective dose for the 80% inhibition of rat cholesterol biosynthesis; type: functional
[4] = biological target: T1, Lanosterol synthase (Rattus norvegicus) (UniProt P48450); assay: Percent inhibition of rat microsomal oxidosqualene cyclase-lanosterol synthase (OSC) at 100 nM
T1 sequence (whole entry): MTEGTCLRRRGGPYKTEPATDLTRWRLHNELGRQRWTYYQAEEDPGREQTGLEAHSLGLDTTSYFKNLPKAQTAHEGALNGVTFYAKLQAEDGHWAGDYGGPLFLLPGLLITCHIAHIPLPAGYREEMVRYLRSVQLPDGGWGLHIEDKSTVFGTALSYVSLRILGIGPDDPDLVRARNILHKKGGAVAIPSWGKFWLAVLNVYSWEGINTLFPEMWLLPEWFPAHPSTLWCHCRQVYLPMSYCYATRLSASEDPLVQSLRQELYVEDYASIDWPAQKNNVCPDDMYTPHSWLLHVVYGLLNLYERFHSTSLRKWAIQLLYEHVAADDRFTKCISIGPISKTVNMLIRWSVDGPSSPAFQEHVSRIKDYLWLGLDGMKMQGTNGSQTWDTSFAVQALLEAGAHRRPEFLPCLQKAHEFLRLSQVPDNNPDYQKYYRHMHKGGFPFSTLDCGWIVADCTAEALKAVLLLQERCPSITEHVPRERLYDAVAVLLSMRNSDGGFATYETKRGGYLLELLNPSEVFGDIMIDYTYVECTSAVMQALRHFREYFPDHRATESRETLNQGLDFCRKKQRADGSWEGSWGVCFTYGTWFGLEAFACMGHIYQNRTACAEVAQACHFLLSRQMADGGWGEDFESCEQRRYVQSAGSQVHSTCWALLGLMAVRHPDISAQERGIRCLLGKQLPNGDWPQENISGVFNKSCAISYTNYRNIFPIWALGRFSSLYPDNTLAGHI

[5] = pKa was determined; type: physicochemical
[6] = system: Rattus norvegicus; assay: Percent feeding effect was determined after oral administration of 100 mg/kg in rat; type: functional
[7] = system: Rattus norvegicus; assay: Percent reduction in food intake was determined after oral administration of 50 mg/kg in rat after 24 hours; type: functional
[8] = Concentration for the inhibition of rat microsomal oxidosqualene cyclase-lanosterol synthase (OSC)

Compound	ED50 [2] [mg/kg]	ED80 [3] [mg/kg]	inhibition [4] [%]	further results
O=C(C1CCN(c2ccncn2)CC1)N1CCN(S(=O)(=O)c2ccc(Br)cc2)CC1	0.4	–	–	Reduction [1]: 17%
O=C(N1CCN(c2ccncc2Cl)CC1)N1CCN(S(=O)(=O)c2ccc(F)cc2)CC1	1.1	2.3	100	–
O=C(C1CCN(S(=O)(=O)c2ccc(Br)cc2)CC1)N1CCC(c2ccncc2)CC1	0.5	4.7	100	–
O=C(N1CCN(c2ccncc2Cl)CC1)N1CCN(S(=O)(=O)c2ccc(C(F)(F)F)cc2)CC1	0.2	0.7	100	–
O=C(C1CCN(c2ccncc2Br)CC1)N1CCN(S(=O)(=O)c2ccc(Br)cc2)CC1	0.5	–	89	–
O=C(C1CCN(c2ccncc2F)CC1)N1CCN(S(=O)(=O)c2ccc(C(F)(F)F)cc2)CC1	0.4	1	100	pKa [5]: 6.7
O=C(N1CCC(c2ccncc2)CC1)N1CCN(S(=O)(=O)c2ccc(F)cc2)CC1	0.5	–	97	–
O=C(N1CCN(c2ccncc2Cl)CC1)N1CCN(S(=O)(=O)c2ccc(Br)cc2)CC1	1.1	2.3	100	–
O=C(C1CCN(c2ncncc2Br)CC1)N1CCN(S(=O)(=O)c2ccc(Br)cc2)CC1	> 2	–	47	–
O=C(N1CCN(c2ccncc2Cl)CC1)N1CCN(S(=O)(=O)c2ccc(Cl)cc2)CC1	0.6	1.4	87	pKa [5]: 5.8; Effect [6]: 14%
O=C(C1CCN(c2ccncc2)CC1)N1CCN(S(=O)(=O)c2ccc(Br)cc2)CC1	–	–	–	Reduction [7]: 64%
O=C(N1CCC(c2ccncc2)CC1)N1CCN(S(=O)(=O)c2ccc(Cl)cc2)CC1	1.7	3.6	91	pKa [5]: 5.8
O=C(c1ccc(C(F)(F)F)cc1)N1CCC(=Cc2ccc(C3=NCCO3)cc2)CC1	–	–	–	Reduction [1]: 15%
O=C(c1ccc(Cl)cc1)c1ccc(OC2CN3CCC2CC3)cc1 (stereo not given)	–	–	–	IC50 [8]: 58 nM
O=C(N1CCC(c2ccncc2)CC1)N1CCN(S(=O)(=O)c2ccc(Br)cc2)CC1	0.4	1.8	94	Effect [6]: 23%
